According to patent US20250051686A1, “SURFACTANTS FOR CLEANING PRODUCTS” (AdvanSix Resins & Chemicals LLC, priority 2023, published 2025):

Legend:
Test in all cases: Antimicrobial minimum inhibitory concentration (MIC), serial dilution
[1] = system: S. aureus (6538); type: cell-based, Staphylococcus aureus; settings: 24 hours; serial dilution 1.7 fold; 400 ppm max (ADBAC control 20 ppm max)
Excerpt: (§1) The antimicrobial properties of surfactants can be examined using known methods and standard protocols, and various types of microorganisms as treatment targets. As a general matter, standard protocols can be developed to assess antimicrobial minimum inhibitory concentration (MIC) using serial dilution method, giving concentration-dependent microorganism growth inhibition measurements against gram positive (e.g., Streptococcus mutans, which is anaerobic, and Staphylococcus aureus, which is usually aerobic but can grow also anaerobically), gram negative (e.g., Escherichia coli, which is anaerobic, or Pseudomonas aeruginosa, which is aerobic). Bacteria are propagated overnight in a suitable growth medium, e.g., a Tryptic Soy Broth. Prior to testing, the concentrations of the test organisms are established using a spectrophotometer that can measure optical density. Those bacterial samples are then diluted to about 1E3 to 1E4 CFU/mL. […] Test measurements are conducted on replicate 96-well plates, and reported as the rounded whole number average of the determined MIC. […] Measurement variability is then reported based on the determined average in the form of MIC+/−.

[2] = system: E. coli (8739); type: cell-based, Escherichia coli; settings: 24 hours; serial dilution 1.7 fold; 400 ppm max (ADBAC control 20 ppm max)
Excerpt: as §1

[3] = system: S. mutans (25715); type: cell-based, Streptococcus mutans; settings: 24 hours; serial dilution 1.7 fold; 400 ppm max (ADBAC control 20 ppm max)
Excerpt: as §1

[4] = system: P. aeruginosa (9027); type: cell-based, Pseudomonas aeruginosa; settings: 24 hours; serial dilution 1.7 fold; 400 ppm max
Excerpt: as §1

MIC Result [1]: 7 +/− 3 ppm
MIC Result [2]: 16 +/− 7 ppm
MIC Result [3]: 7 +/− 3 ppm
MIC Result [4]: 48 +/− 20 ppm
Compound: CCCCCCCCCCCCCC[N+](C)(C)Cc1ccccc1.[Cl-] [ADBAC control]
